What is called Ki is the equilibrium dissociation constant of an inhibitor or competing ligand from its target. A lower Ki goes with tighter binding.

The values that follow come from ChEMBL document CHEMBL1221287 (Bioorg Med Chem Lett, 2010).

In experiment [1] the target is Carbonic anhydrase 13 (Homo sapiens, UniProt Q8N1Q1).
Description: Inhibition of human carbonic anhydrase 13 after 15 mins by stopped flow CO2 hydration method
The target of experiment [2] is Carbonic anhydrase 3 (Homo sapiens, UniProt P07451).
Description: Inhibition of human carbonic anhydrase 3 after 15 mins by stopped flow CO2 hydration method
Experiment [3] concerns the target T1, Carbonic anhydrase 15 (Mus musculus, UniProt Q99N23).
T1 sequence (Q99N23 whole entry): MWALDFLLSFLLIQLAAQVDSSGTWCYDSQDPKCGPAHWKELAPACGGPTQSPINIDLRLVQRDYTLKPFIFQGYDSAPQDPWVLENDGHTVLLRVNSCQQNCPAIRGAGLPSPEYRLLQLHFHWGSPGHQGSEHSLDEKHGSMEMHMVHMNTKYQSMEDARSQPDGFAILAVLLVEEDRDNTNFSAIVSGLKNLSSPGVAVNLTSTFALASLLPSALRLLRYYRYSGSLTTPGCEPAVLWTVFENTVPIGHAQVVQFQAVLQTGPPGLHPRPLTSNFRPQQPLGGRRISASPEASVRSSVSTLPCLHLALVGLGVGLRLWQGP
Description: Inhibition of mouse carbonic anhydrase 15 after 15 mins by stopped flow CO2 hydration method

The target of experiment [4] is Carbonic anhydrase 5B, mitochondrial (Homo sapiens, UniProt Q9Y2D0).
Description: Inhibition of human carbonic anhydrase 5b after 15 mins by stopped flow CO2 hydration method
Experiment [5] deals with Carbonic anhydrase 7 (Homo sapiens, UniProt P43166).
Description: Inhibition of human carbonic anhydrase 7 after 15 mins by stopped flow CO2 hydration method
Experiment [6] has as its target Carbonic anhydrase 6 (Homo sapiens, UniProt P23280).
Description: Inhibition of human carbonic anhydrase 6 after 15 mins by stopped flow CO2 hydration method
For experiment [7], the target named is Carbonic anhydrase 4 (Homo sapiens, UniProt P22748).
Description: Inhibition of human carbonic anhydrase 4 after 15 mins by stopped flow CO2 hydration method
Experiment [8] deals with Carbonic anhydrase 12 (Homo sapiens, UniProt O43570).
Description: Inhibition of human carbonic anhydrase 12 after 15 mins by stopped flow CO2 hydration method
In experiment [9] the target is Carbonic anhydrase 9 (Homo sapiens, UniProt Q16790).
Description: Inhibition of human carbonic anhydrase 9 after 15 mins by stopped flow CO2 hydration method
For experiment [10], the target named is Carbonic anhydrase 14 (Homo sapiens, UniProt Q9ULX7).
Description: Inhibition of human carbonic anhydrase 14 after 15 mins by stopped flow CO2 hydration method
Experiment [11] concerns the target Carbonic anhydrase 5A, mitochondrial (Homo sapiens, UniProt P35218).
Description: Inhibition of human carbonic anhydrase 5a after 15 mins by stopped flow CO2 hydration method
For experiment [12], the target named is Carbonic anhydrase 1 (Homo sapiens, UniProt P00915).
Description: Inhibition of human carbonic anhydrase 1 after 15 mins by stopped flow CO2 hydration method
The target in experiment [13] is Carbonic anhydrase 2 (Homo sapiens, UniProt P00918).
Description: Inhibition of human carbonic anhydrase 2 after 15 mins by stopped flow CO2 hydration method

SMILES strings stand for the structures. A value given as a limit tells only on which side of the number the result lay.

Sequence of Carbonic anhydrase 3 (P07451 whole entry): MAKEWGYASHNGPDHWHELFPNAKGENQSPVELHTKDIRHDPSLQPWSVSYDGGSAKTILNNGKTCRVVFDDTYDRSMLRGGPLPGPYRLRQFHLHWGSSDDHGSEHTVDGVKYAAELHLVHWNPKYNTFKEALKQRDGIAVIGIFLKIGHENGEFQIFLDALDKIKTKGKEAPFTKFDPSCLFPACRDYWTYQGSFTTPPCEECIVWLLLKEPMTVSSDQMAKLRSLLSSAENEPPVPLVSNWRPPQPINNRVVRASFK
Sequence of Carbonic anhydrase 5B, mitochondrial (Q9Y2D0 whole entry): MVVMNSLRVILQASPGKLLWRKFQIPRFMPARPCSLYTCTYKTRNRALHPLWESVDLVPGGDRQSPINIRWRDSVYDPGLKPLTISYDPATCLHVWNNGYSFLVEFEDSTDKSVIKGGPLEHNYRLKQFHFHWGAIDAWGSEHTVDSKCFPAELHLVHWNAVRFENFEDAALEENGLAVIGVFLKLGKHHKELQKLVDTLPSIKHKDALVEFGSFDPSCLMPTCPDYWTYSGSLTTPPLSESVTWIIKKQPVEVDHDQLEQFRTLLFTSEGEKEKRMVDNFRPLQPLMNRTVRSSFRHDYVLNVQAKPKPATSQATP
Sequence of Carbonic anhydrase 5A, mitochondrial (P35218 whole entry): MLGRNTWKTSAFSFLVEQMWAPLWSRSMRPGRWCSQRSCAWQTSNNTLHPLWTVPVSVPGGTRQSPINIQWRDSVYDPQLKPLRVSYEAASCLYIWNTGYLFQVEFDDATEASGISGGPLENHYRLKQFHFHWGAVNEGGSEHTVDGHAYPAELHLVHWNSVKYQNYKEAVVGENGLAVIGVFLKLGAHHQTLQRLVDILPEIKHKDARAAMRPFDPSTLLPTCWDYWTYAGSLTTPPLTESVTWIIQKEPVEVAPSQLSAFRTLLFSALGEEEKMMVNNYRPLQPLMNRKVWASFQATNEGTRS
Sequence of Carbonic anhydrase 6 (P23280 whole entry): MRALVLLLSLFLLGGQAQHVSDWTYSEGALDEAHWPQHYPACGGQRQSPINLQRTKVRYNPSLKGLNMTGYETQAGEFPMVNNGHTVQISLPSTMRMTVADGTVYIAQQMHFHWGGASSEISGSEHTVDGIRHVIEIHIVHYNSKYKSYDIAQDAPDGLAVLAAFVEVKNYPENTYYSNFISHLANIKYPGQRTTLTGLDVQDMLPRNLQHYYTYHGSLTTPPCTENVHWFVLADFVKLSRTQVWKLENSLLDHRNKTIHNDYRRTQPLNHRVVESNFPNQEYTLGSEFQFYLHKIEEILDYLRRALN
Sequence of Carbonic anhydrase 7 (P43166 whole entry): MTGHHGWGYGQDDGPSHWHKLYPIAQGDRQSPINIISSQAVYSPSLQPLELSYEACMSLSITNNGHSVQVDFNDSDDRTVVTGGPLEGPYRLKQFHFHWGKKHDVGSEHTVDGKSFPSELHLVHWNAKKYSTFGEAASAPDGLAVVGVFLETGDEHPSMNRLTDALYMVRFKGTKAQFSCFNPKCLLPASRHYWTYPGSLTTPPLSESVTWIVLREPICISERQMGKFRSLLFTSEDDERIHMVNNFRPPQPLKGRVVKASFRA
Sequence of Carbonic anhydrase 1 (P00915 whole entry): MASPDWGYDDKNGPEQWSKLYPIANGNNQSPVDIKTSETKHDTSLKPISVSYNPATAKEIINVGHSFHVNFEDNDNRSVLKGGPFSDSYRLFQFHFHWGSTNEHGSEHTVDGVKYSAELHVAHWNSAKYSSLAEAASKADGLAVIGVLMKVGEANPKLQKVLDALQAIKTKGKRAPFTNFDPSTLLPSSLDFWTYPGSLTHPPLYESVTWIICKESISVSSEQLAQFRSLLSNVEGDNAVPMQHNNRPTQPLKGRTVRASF
Sequence of Carbonic anhydrase 14 (Q9ULX7 whole entry): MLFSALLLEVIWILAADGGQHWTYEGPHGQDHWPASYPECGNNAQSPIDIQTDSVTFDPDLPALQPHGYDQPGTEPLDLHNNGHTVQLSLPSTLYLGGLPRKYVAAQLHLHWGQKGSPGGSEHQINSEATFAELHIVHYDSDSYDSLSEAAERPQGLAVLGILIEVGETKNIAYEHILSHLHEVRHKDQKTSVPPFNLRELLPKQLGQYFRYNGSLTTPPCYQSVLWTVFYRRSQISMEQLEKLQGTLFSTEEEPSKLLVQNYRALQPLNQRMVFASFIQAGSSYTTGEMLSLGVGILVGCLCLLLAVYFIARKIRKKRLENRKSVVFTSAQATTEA
Sequence of Carbonic anhydrase 4 (P22748 whole entry): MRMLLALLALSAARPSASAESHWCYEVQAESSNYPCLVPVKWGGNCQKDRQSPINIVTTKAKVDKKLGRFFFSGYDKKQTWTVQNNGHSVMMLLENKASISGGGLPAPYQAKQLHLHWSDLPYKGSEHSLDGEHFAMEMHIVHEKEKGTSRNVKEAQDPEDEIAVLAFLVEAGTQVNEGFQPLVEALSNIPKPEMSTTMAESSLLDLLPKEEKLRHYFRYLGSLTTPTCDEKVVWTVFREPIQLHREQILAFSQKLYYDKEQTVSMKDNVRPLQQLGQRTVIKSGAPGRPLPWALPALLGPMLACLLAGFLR
Sequence of Carbonic anhydrase 13 (Q8N1Q1 whole entry): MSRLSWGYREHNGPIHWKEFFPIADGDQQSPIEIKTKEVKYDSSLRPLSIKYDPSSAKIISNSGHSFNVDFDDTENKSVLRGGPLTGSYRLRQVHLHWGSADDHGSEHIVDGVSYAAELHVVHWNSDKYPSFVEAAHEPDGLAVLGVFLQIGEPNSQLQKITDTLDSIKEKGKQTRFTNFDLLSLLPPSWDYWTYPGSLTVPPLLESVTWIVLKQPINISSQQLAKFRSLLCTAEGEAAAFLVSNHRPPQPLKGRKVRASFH
Sequence of Carbonic anhydrase 12 (O43570 whole entry): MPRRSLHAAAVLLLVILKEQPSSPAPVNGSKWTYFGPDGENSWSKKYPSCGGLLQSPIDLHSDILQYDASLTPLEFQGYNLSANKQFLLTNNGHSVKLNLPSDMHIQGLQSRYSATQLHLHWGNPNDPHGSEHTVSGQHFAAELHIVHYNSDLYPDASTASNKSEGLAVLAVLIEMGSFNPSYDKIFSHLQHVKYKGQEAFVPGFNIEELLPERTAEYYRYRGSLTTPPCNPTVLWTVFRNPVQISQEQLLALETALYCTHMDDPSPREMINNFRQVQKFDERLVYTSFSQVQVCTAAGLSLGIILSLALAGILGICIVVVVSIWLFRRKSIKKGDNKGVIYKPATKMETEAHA

In the case of `Oc1ccccc1` [PHENOL], in experiment [1], the Ki was 697 µM.
Turning to `COc1cc(/C=C/C(=O)CC(=O)/C=C/c2ccc(O)c(OC)c2)ccc1O` [CURCUMIN], the Ki in experiment [2] came out at 11.3 µM; in experiment [3], 5.09 µM; in experiment [4] it was 9.46 µM; in experiment [5], 9.3 µM; in [6] it was 9.94 µM; in experiment [7] it was 4.97 µM. For the same compound, the Ki was 3.48 µM in experiment [8]; 4.05 µM in experiment [9]; 11.7 µM in experiment [10]; 10.2 µM in [11]; 6.85 µM in experiment [1].
With `CC(CCc1ccc(O)cc1)NCCc1ccc(O)c(O)c1` (centres undefined) [DOBUTAMINE], the Ki in experiment [2] worked out at 7.4 µM; in experiment [3] it was 0.39 µM; in experiment [12], 1.92 µM; in experiment [4], 0.89 µM; in [5], 4.3 µM; in experiment [6] it was 9.47 µM. Also, the Ki was determined as 8.98 µM in [7]; 4.35 µM in experiment [8]; 9.82 µM in [9]; 12 µM in experiment [10]; 0.73 µM in experiment [11]; 9.53 µM in experiment [1]. The compound also had a Ki in experiment [13] of 0.48 µM.
Consider `O=C(O)/C=C/c1ccccc1O` [O-COUMARIC ACID], for which the inhibitory constant (Ki) is above 1000 µM in [2]; above 1000 µM in experiment [3]; 3.1 µM in experiment [12]; 578 µM in experiment [4]; above 1000 µM in experiment [5]; above 1000 µM in experiment [6]. For the same compound, the Ki in experiment [7] was 62.3 µM; in experiment [8] it was above 1000 µM; in experiment [9], above 1000 µM; in [10], above 1000 µM; in experiment [11], above 1000 µM; in experiment [1], above 1000 µM. The same compound registered a Ki in [13] of 9.2 µM.
For `Oc1cc(O)c2c(c1)O[C@H](c1ccc(O)c(O)c1)[C@@H](O)C2` [CATECHIN], the Ki is 3.58 µM in experiment [2]; 7.68 µM in experiment [3]; 2.42 µM in experiment [12]; 4.02 µM in [4]; 0.45 µM in experiment [5]; 4.91 µM in experiment [6]. Besides, the Ki in experiment [7] was 4.9 µM; in [8], 4.72 µM; in experiment [9] it was 5.03 µM; in [10], 11.5 µM; in [11], 4.21 µM; in experiment [1], 10.5 µM. The compound further gave a Ki in [13] of 1.84 µM.
On to `Oc1ccc(/C=C/c2cc(O)cc(O)c2)cc1` [RESVERATROL], for which the Ki is 9.09 µM in experiment [2]; 9.36 µM in experiment [3]; 2.21 µM in experiment [12]; 4.64 µM in experiment [4]; 4.35 µM in experiment [5]; 8.07 µM in [6]. Besides, the Ki came to 4.47 µM in experiment [7]; 0.95 µM in experiment [8]; 0.81 µM in experiment [9]; 0.83 µM in experiment [10]; 4.75 µM in experiment [11]; 4.09 µM in [1]. Moreover, the Ki in experiment [13] was determined as 2.77 µM.
